Test results: patent publication US20240317727A1 (Duke University, priority 2018, published 2024)

biological target: T1, recombinant HSF1 DNA-binding domain (DBD) (Homo sapiens, UniProt Q00613); assay: Differential Scanning Fluorimetry (DSF), HSF1 DBD melting temperature; conditions: Table 1; 5 μM HSF1 DBD, 25PM Compound; positive = stabilizes, negative = destabilizes HSF1
T1 sequence (Q00613 15-120): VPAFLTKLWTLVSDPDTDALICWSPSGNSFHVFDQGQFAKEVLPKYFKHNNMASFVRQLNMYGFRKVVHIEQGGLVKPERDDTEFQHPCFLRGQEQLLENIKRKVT

SMILES | ΔTm at 25 µM [°C] | ΔTm
O=[N+]([O-])c1cc(C(F)(F)F)cc([N+](=O)[O-])c1O/N=C1\CSCc2ccccc21 [Compound 0008] | -4.56 | 
O=C(Nc1ccc(F)c(F)c1)Nc1ccc(Cl)c([N+](=O)[O-])c1 [Compound 0034, 1-(4-chloro-3-nitrophenyl)-3-(3,4-difluorophenyl)urea] | 5.7 | 
N#C/C(=C(/Oc1ccc(Cl)cc1Cl)C(F)(F)F)c1ccccc1 [Compound 0107] | -4.4 | 
CSc1ccc(Oc2c([N+](=O)[O-])cc(C(F)(F)F)cc2[N+](=O)[O-])cc1 [Compound 0116] | -5.56 | 
COc1ccc(CSc2ccc([N+](=O)[O-])c3nonc23)cc1 [Compound 0089] | -5.73 | 
O=C(Nc1ccc(Cl)c([N+](=O)[O-])c1)Nc1ccc(F)c(C2(C(F)(F)F)N=N2)c1 [Compound 0094, 1-(4-chloro-3-nitro-phenyl)-3-[4-fluoro-3-[3-(trifluoromethyl)diazirin-3-yl]phenyl]urea] | 2.92 | 
O=C(Nc1ccc(S(=O)(=O)N2CCCCC2)cc1)c1cccc(Cl)c1 [Compound 0097] | 3.43 | 
N#Cc1cc(NC(=O)Nc2ccc(F)cc2)ccc1Cl [Compound 0083, 1-(4-chloro-3-cyano-phenyl)-3-(4-fluorophenyl) urea] | 2 | 
O=C(Nc1ccc(F)cc1)Nc1ccc(Cl)nc1 [Compound 0090, 1-(6-chloro-3-pyridyl)-3-(4-fluorophenyl) urea] | 0.67 | 
CCOc1ccc(S(=O)(=O)NCc2ccccn2)c2ccccc12 [Compound 0087] | -9.24 | 
O=[N+]([O-])c1cc(C(F)(F)F)cc([N+](=O)[O-])c1Oc1ccc(I)cc1 [Compound 0077] | 2.5 | 
CCOC(=O)N1CCN(C2=Nc3cc(Cl)ccc3C(C)C2)CC1 (stereo not drawn) [Compound 0043] | -9.07 | 
Cc1ccc(NC(=O)Nc2cccc([N+](=O)[O-])c2)cc1 [Compound 0110, 1-(3-nitrophenyl)-3-(p-tolyl)urea] | 2.94 | 
Cc1ccc(NC(=O)Nc2cccc(Cl)c2)cc1 [Compound 0068, 1-(3-chlorophenyl)-3-(p-tolyl)urea] | 2.75 | 
Oc1ccccc1/C=N/NC(=S)Nc1cccc(Cl)c1 [Compound 0015] | 3.44 | 
O=C(Nc1ccc(F)cc1)Nc1ccc(Cl)cc1 [Compound 0096, 1-(4-chlorophenyl)-3-(4-fluorophenyl)urea] | 2.61 | 
Cc1cccc(NC(=O)Nc2cccc(Cl)c2)c1 [Compound 0063, 1-(3-chlorophenyl)-3-(m-tolyl)urea] | 2.5 | 
CC(C)(C)c1ccc(NC(=O)Nc2ccc(Cl)c([N+](=O)[O-])c2)cc1 [Compound 0105, 1-(4-(tert-butyl)phenyl)-3-(4-chloro-3-nitrophenyl)urea] | 3.2 | 
CSc1nnc(SC2=CC(=O)CC(c3ccccc3)C2)s1 (stereo not drawn) [Compound 0031] | -6.23 | 
CC(C)(C)CC(C)(C)c1ccc(O)c(Cc2ccc(Cl)cc2Cl)c1 [Compound 0073] | 2.6 | 
O=C(N/N=C/c1cccnc1)c1ccc(=O)[nH]n1 [Compound 0037] | -9.74 | 
Cc1ccc(NC(=O)Nc2cccc(C(F)(F)F)c2)cc1 [Compound 0058, 1-(p-tolyl)-3-(3-(trifluoromethyl)phenyl)urea] | 2.58 | 
Cc1ccc(-n2c(SCC(=O)NC(C)c3ccccc3)nnc2-c2ccccc2)cc1 (stereo not drawn) [Compound 0030] | -8.57 | 
O=S1(=O)N=C(Nc2ccc(F)cc2)C(Nc2ccc(Cl)c(C(F)(F)F)c2)=N1 [Compound 0033, N3-[4-chloro-3-(trifluoromethyl)phenyl]-N4-(4-fluorophenyl)-1,1-dioxo-1,2,5-thiadiazole-3,4-diamine] | 1.9 | 
Cc1cc(/C=N/Nc2nc3ccccc3s2)cc(C)c1O [Compound 0114] | 0.49 | 

SMILES | ΔTm at 25 µM [°C] | ΔTm
COc1ccc(NC(=O)Nc2ccc(C)cc2)cc1 [Compound 0011, 1-(4-methoxyphenyl)-3-(p-tolyl)urea] | 2.61 | 
O=C(COc1ccc(Cl)cc1Cl)N/N=C/c1c[nH]c2ccccc12 [Compound 0098] | 4.93 | 
O=C(Nc1cccc(Cl)c1)O/N=C/c1ccc(F)cc1 [Compound 0051] |  | −6.91
N=C(Nc1ccc(F)cc1)Nc1ccc(Cl)c(C(F)(F)F)c1 [Compound 0032, 1-[4-chloro-3-(trifluoromethyl)phenyl]-3-(4-fluorophenyl)guanidine] | 0.75 | 
O=c1c(Nc2ccc(F)c(F)c2)c(Nc2ccc(Cl)c(S(=O)(=O)C(F)(F)F)c2)c1=O [Compound 0016, 3-[4-chloro-3-(trifluoromethylsulfonyl)anilino]-4-(3,4-difluoroanilino)cyclobut-3-ene-1,2-dione] | 2.75 | 
O=C(Nc1ccccc1)Nc1cccc(Cl)c1 [Compound 0091, 1-(3-chlorophenyl)-3-phenylurea] | 2.5 | 
Cc1cc(N)c2ccccc2c1O [Compound 0039] | -4.28 | 
O=C(Nc1ccc(F)cc1)Nc1ccc2nonc2c1 [Compound 0027, 1-(2,1,3-benzoxadiazol-5-yl)-3-(4-fluorophenyl)urea] | 2.8 | 
Cc1ccc(CNC(=O)CSc2nnc(-c3ccc(C)cc3)n2-c2ccccc2)cc1 [Compound 0025] | -9.21 | 
COc1ccc(NC(=O)Nc2ccc(Cl)cc2)cc1 [Compound 0036, 1-(4-chlorophenyl)-3-(4-methoxyphenyl)urea] | 2.61 | 
O=C(Nc1cccc(Cl)c1)O/N=C/c1ccc(F)cc1 [Compound 0045] |  | −8.21
O=C(N/C=C/c1ccsc1)Nc1cc(Cl)ccc1F [Compound 0010] | 5.43 | 
Cc1ccc(CNC(=O)CSc2nnc(-c3ccccc3)n2-c2ccc(C)c(C)c2)cc1 [Compound 0115] | -9.91 | 
Cc1c2oc3c(C)c(O)c(I)cc3c(-c3c(Cl)c(Cl)c(Cl)c(Cl)c3C(=O)O)c-2cc(I)c1=O [Compound 0100] | -7.52 | 
CN(C(=O)Nc1ccc(Cl)c([N+](=O)[O-])c1)c1ccc(F)cc1 [Compound 0023, 3-(4-chloro-3-nitro-phenyl)-1-(4-fluorophenyl)-1-methyl-urea] | 0.67 | 
CC(=O)NC1C(O)OC(OS(=O)(=O)O)C(O)C1OC1CC(C(=O)O)C(O)C(O)C1O (stereo not drawn) [Compound 0041] | -3.11 | 
O=c1c(Nc2ccc(F)cc2)c(Nc2ccc(Cl)c(S(=O)(=O)C(F)(F)F)c2)c1=O [Compound 0112, 3-[4-chloro-3-(trifluoromethylsulfonyl)anilino]-4-(4-fluoroanilino)cyclobut-3-ene-1,2-dione] | 2.08 | 
CC1CC(=O)Oc2cc(Oc3c([N+](=O)[O-])cc(C(F)(F)F)cc3[N+](=O)[O-])ccc21 (stereo not drawn) [Compound 0042] | -6.23 | 
CCOC(=O)c1c(Cl)c2ccccc2oc1=O [Compound 0021] | -9.19 | 
Cc1ccc(/C=N/NC(=O)c2c[nH]c3ccccc23)s1 [Compound 0082] | 3.9 | 
O=C(Nc1ccc(Cl)cc1)Nc1cccc(Cl)c1 [Compound 0066, 1-(3-chlorophenyl)-3-(4-chlorophenyl)urea] | 3 | 
O=c1c(Nc2ccc(F)cc2)c(Nc2ccc(Cl)c([N+](=O)[O-])c2)c1=O [Compound 0002, 3-(4-chloro-3-nitro-anilino)-4-(4-fluoroanilino)cyclobut-3-ene-1,2-dione] | 1.9 | 
O=C(Nc1cc(Cl)cc(Cl)c1)Nc1cc(-c2cccs2)n[nH]1 [Compound 0074] | 2.61 | 
O=[N+]([O-])c1cc(NC2=NS(=O)(=O)N=C2Nc2ccc(F)cc2)ccc1Cl [Compound 0080, N3-(4-chloro-3-nitro-phenyl)-N4-(4-fluorophenyl)-1,1-dioxo-1,2,5-thiadiazole-3,4-diamine] | 1.6 | 
Cc1ccc(NC(=O)Nc2ccc(Cl)c([N+](=O)[O-])c2)cc1 [Compound 0046, 1-(4-chloro-3-nitrophenyl)-3-(p-tolyl)urea] | 4.3 | 

same assay, conditions: Table 3; 5 μM HSF1 DBD, 25PM Compound; positive = stabilizes, negative = destabilizes HSF1

SMILES | ΔTm at 25 µM [°C]
N=C(Nc1ccc(F)cc1)Nc1ccc(Cl)c(C(F)(F)F)c1 [Compound 032, 1-[4-chloro-3-(trifluoromethyl)phenyl]-3-(4-fluorophenyl)guanidine] | 0.75
Cc1ccc(NC(=O)Nc2cccc(Cl)c2)cc1 [Compound 068, 1-(3-chlorophenyl)-3-(p-tolyl)urea] | 2.75
O=C(Nc1ccc(Cl)c([N+](=O)[O-])c1)Nc1ccc(F)c(C2(C(F)(F)F)N=N2)c1 [Compound 094, 1-(4-chloro-3-nitro-phenyl)-3-[4-fluoro-3-[3-(trifluoromethyl)diazirin-3-yl]phenyl]urea] | 2.92
COc1ccc(NC(=O)Nc2ccc(Cl)cc2)cc1 [Compound 036, 1-(4-chlorophenyl)-3-(4-methoxyphenyl)urea] | 2.61
CC(=O)Nc1cc(NC(=O)Nc2ccc(F)cc2)ccc1Cl [Compound 095, N-[2-chloro-5-[(4-fluorophenyl)carbamoylamino]phenyl]acetamide] | 0.67
Cc1cccc(NC(=O)Nc2cccc(Cl)c2)c1 [Compound 006, 1-(3-chlorophenyl)-3-(m-tolyl)urea] | 2.5
O=c1c(Nc2ccc(F)c(F)c2)c(Nc2ccc(Cl)c(S(=O)(=O)C(F)(F)F)c2)c1=O [Compound 016, 3-[4-chloro-3-(trifluoromethylsulfonyl)anilino]-4-(3,4-difluoroanilino)cyclobut-3-ene-1,2-dione] | 2.75
O=C(Nc1cccc(Cl)c1)Nc1ccc(Cl)c([N+](=O)[O-])c1 [Compound 061, 1-(4-chloro-3-nitrophenyl)-3-(3-chlorophenyl)urea] | 2.94
O=C(Nc1ccc(F)cc1)Nc1cccc(C(F)(F)F)c1 [Compound 003, 1-(4-fluorophenyl)-3-(3-(trifluoromethyl)phenyl)urea] | 1.78
CN(C(=O)Nc1ccc(Cl)c([N+](=O)[O-])c1)c1ccc(F)cc1 [Compound 023, 3-(4-chloro-3-nitro-phenyl)-1-(4-fluorophenyl)-1-methyl-urea] | 0.67
